Measurements: ChEMBL document CHEMBL3507680, “University of Dundee, Gates Library screen for HepG2 cell viability”

Assay: Human HepG2 cell viability assay in 384 well format
Type: toxicity, cell-based
Set-up: dose 125 nL, time 70.5 hour; concentration not given beside the values
Conditions: HepG2 cells, read-out: Inhibition

Compound | cytotoxicity at 70.5 h [%]
Cc1ccccc1CN1CC[C@@]2(O)CCN(C(=O)C3CCC3)C[C@H]2C1 | 2.03
CN(Cc1nnc(C2CC2)o1)Cc1ccccc1N1CCOCC1 | -4.09
CNC(=O)C1(C)CCCN(c2cnccn2)C1 (stereo not given) | -8.04
O=C(COC(=O)Cc1cccs1)NCc1cccc(NC(=O)C2CC2)c1 | -10.5
Cc1ccc(C(C)NC(=O)Cc2c(C)nc3cc(=O)[nH]n3c2C)s1 (stereo not given) | -10.8
CNC(=O)C1CN(C(=O)c2ccncc2)CCN(S(C)(=O)=O)C1 (stereo not given) | 22.7
Cc1csc2ncc(-c3ccnc(N4CCCC4)n3)c(=O)n12 | -2.62
CC1CCN(CCNC(=O)c2cncnc2C(C)C)CC1 | -5.55
Cc1cc(C)cc(-c2cccc(CC3(C(=O)O)CCOCC3)c2)c1 | 43.6
Cn1ccc(C(=O)N2CCN(CCc3ccccc3)CC2)cc1=O | -1.11
CC(C)[C@@H]1CN(c2ccc(C(F)(F)F)cn2)C[C@H]1NS(C)(=O)=O | 21.5
CC(C(=O)N1CCCCC1)N1CCN(c2ncc(Cl)cn2)CC1 (stereo not given) | -0.389
COc1ccc(C)cc1Nc1nc2c(C)nn(C)c2c(=O)n1C | -5.48
CCc1nn(-c2cc(Oc3cc(C)ccc3C)nc(C)n2)c(N)c1C#N | 28.3
O=C(Cc1cccs1)N1C[C@@H]2OCCN(CC3CCCO3)[C@@H]2C1 (stereo not given in full) | -1.51
c1ccc(COC[C@@H]2CC[C@H]3[C@H](CCN3c3ncccn3)O2)nc1 | -9.8
Cc1ccnc(NCC2(N(C)C)CCOCC2)n1 | -2.1
CN1C(=O)C(C)(C)COc2cc(NS(=O)(=O)c3ccccc3)ccc21 | 8.64
Cn1cc(I)c(C(=O)NC2CCCCC2)n1 | 28.2
OC1CCN(c2ccc(CNc3nc4ccccc4o3)cc2F)CC1 | -9.97
Cc1cccc(CN2C(=O)CCC23CCN(Cc2ccoc2)CC3)n1 | -0.993
COc1cccc(C(=O)NCc2ccccc2S(=O)(=O)N(C)C)c1 | -4.93
CC(C)NC(=O)N1CCc2nc(C(=O)NCc3ccccc3)sc2CC1 | -15.4
O=C(c1ccc(CN2CC(n3cccn3)C2)cc1)N1CCCC1 | -0.354
CN(CCO)C[C@@H]1CN(C(=O)c2cccc(OC(F)F)c2)C[C@@H]1CO | -5.3
c1cnc(NC[C@H]2OC[C@@H]3CCN(Cc4ccncc4)C[C@@H]32)nc1 | 17.4
O=C(c1ccc(Cl)cc1)N1CCc2nc(C(=O)N3CCCC3)sc2CC1 | 7.75

Compound | cytotoxicity at 70.5 h [%]
Cc1cnc(-n2cnnc2)c(-c2cccc3c2CCNC3)c1 | -7.78
Cn1cccc1C(=O)NCc1cn2c(n1)CN(c1ncccn1)CC2 | -12.8
COCc1noc(C2(c3ccc(F)cc3)CC2)n1 | 12.6
CCn1c(C)nnc1SCCNC(=O)c1cnc(C(C)(C)C)nc1O | 14.5
Cn1cnc2c1CCN(Cc1csc(C3CCCCC3)n1)C2 | -14.4
CN(Cc1cn2c(n1)CN(C(=O)C1CCCO1)CC2)Cc1ccco1 (stereo not given) | -3.64
O=C(COc1ccc2c(c1)OCC2O)NCc1ccco1 (stereo not given) | -0.449
CC(Oc1ccc(F)c(F)c1)C(=O)N(CC(N)=O)C1CCCC1 (stereo not given) | 27.6
CCn1ccnc1CN1CCN(Cc2cnc(C)cn2)CC1C (stereo not given) | 4.47
CC(C)C(=O)NCC(=O)N(C)C1CCCN(C2Cc3ccccc3C2)C1 (stereo not given) | -10.4
CSCCC(NC(N)=O)C(=O)NCc1c(C)nn(-c2ccccc2)c1C (stereo not given) | -4.27
COc1cc(C(C)NCc2cscn2)ccc1SC(F)F (stereo not given) | 30.9
COc1cccc(CN(C)C(=O)c2csc(-c3nnc[nH]3)n2)c1 | -1.87
CCc1ccc(CCn2cnc(C#N)n2)cc1 | -7.83
COCCNC(=O)c1cc(OC)ccc1Br | 0.394
O=C(NC1CCC1)[C@@H]1CCO[C@@H]2CCN(C3CCCC3)C[C@H]21 | -3.8
CN1CCN2CCN(Cc3cc(=O)n4c5c(cccc35)CCC4)CC2C1 (stereo not given) | -13.5
Cc1nc(C)n(CC2CCCN(Cc3nc(-c4ccco4)no3)C2)n1 (stereo not given) | -3.87
CS(=O)(=O)NCC(=O)NC1CCCN(c2ccccn2)C1 (stereo not given) | -9.78
CC(C)c1nnc2n1CCN(C(=O)c1ccc(OCC(N)=O)cc1)C2 | -4.33
Cn1cnnc1S(=O)(=O)C1CCN(C(=O)c2ccsc2)CC1 | -9.56
O=C(c1cc2c(F)cccc2[nH]1)N1CCCCC1Cn1cccn1 (stereo not given) | 3.2
CN1CCC(N(CCc2ccccc2)C(=O)c2ccc(CO)cc2)CC1 | -11.1
CCC(C)NC(=O)CCc1ccnc2ccccc12 (stereo not given) | 2.59
COCC1CCCN(C(=O)c2cc(Cn3ccc4ccccc43)[nH]n2)C1 (stereo not given) | -6.02
CCOc1ccc(CN2CCC(c3ccn[nH]3)C2)cc1CO (stereo not given) | 3.78
CN1CC(C(=O)NCCc2ccc3c(c2)OCCO3)CC1=O (stereo not given) | -1.68

Compound | cytotoxicity at 70.5 h [%]
Cc1ccc(-c2cc(N)c(=O)n(CC(=O)NC3CCCC3)n2)s1 | 13
CCN1CCC(NC(=O)CN2CC(n3nc(C)cc3C)C2)CC1 | -6.85
Cc1csc(N2CCN(C(=O)CCn3cccn3)CC2)n1 | 3.65
Cc1cnn(CC2CCCN2C(=O)c2ccc(-n3cccn3)nc2)c1 (stereo not given) | -1.39
Cc1cc(O)nc(C2CCCN(Cc3ccncc3)C2)n1 (stereo not given) | -0.0773
O=C(Nc1ccccc1)C1=NOC2(CCCN(C(=O)C3CCCC3)C2)C1 (stereo not given) | -1.79
COCCN1CCN(C(=O)N2CCCC2)Cc2ccc(C)nc21 | 24.9
CC(C)(C)n1cc(C#N)cc1NC(=O)CCS(=O)(=O)C1CCCC1 | 0.563
Cc1cc(C(=O)NCC(Cc2cccc(F)c2)N2CCCCC2=O)no1 (stereo not given) | -2.65
COCCn1cc(C(=O)N2CCCC2c2cccc(C)c2)ccc1=O (stereo not given) | -4.94
COc1ccccc1CNC(=O)COc1ccc2c(c1)OCC2O (stereo not given) | -5.21
CN1C[C@@H](c2cccc(F)c2)[C@H]2[C@H]1CCCCCN2C(=O)C1CC1 | 2.38
CN(C)CCNC(=O)c1nc2c(s1)CCCN2C(=O)C1CC1 | -2.21
O=C(c1cccnc1SCc1ccccc1)N1CC[C@@H](O)C1 | 29.6
O=C(c1ccco1)N1CCCC1C1CCN(Cc2ccccc2)CC1 (stereo not given) | -5.08
CCc1ccc(CN(C(=O)CCn2cc(S(N)(=O)=O)cn2)C2CC2)cc1 | -2.81
CC(C)NC(=O)CC1COC2(CCN(Cc3cccs3)CC2)C1 (stereo not given) | -20.6
Cc1nc2[nH]cnc(NCCN3CCCC3)c-2n1 | -9.67
CS(=O)(=O)N1CC2(CCN(CC3CCCCC3)C2)Cc2ccccc21 (stereo not given) | -3.19
COc1c(C)cc(CNCc2ccnc(N3CCOCC3)c2)cc1C | 2.82
Cc1nc(CN2CCOCC3(CCN(c4ncccn4)CC3)C2)cs1 | -97.5
O=C(Nc1cc(-n2cccc2)ccc1F)N1CCCC1 | -11.7
COc1ccc(CC(=O)N2CCN(Cc3ccco3)C[C@@H]2C)cc1 | -7.32
CCOC(=O)C1CCN(C(=O)CN2CCCC2c2cc(C)no2)CC1 (stereo not given) | -17.8
Cc1cc(NC(=O)CCn2cncn2)no1 | 5.52
CN1CCC(n2nc(Cc3cccc(Cl)c3)nc2Cn2cnnn2)CC1 | 27.5
